Our source for the IC50 values is patent US6831199B1, “Pyrimidine compounds and derivatives thereof” (G. D. Searle & Co., priority 1995, dated 2004).

Where a name gives a salt, the structure may show the parent alone. A value given as a limit tells only on which side of the number the result lay.

Test [1] deals with T1, Human vitronectin receptor (αvβ3) (Homo sapiens, UniProt P05106+P06756).
T1 construct: Human vitronectin receptor (αvβ3) was purified from human placenta; from tissue; host or cells: human placenta
Description: Vitronectin adhesion assay (solid phase receptor assay, competition with biotinylated vitronectin). It counts as binding. As to conditions: read-out: AvB3 IC50. Put shortly:
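Purified human αvβ3 coated overnight at 4 °C in TBS with 1.0 mM Ca++, Mg++, Mn++, pH 7.4; compounds (top final 1.0×10^−4 M) competed with 1 nM biotinylated vitronectin for 2 h at room temperature. Bound ligand detected by HRP anti-biotin/OPD at A450; values normalized to no-competitor controls, four-parameter curve fit.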

Test [2] has as its target T2, Human fibrinogen receptor (αIIbβ3) (Homo sapiens, UniProt P05106+P08514).
T2 construct: Human fibrinogen receptor (αIIbβ3) was purified from outdated platelets; from tissue; host or cells: outdated human platelets
Description: Purified IIb/IIIa receptor assay (solid phase receptor assay, competition with biotinylated vitronectin). It counts as binding. As to conditions: read-out: IIb/IIIa IC50. The method, boiled down:
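Purified platelet αIIbβ3 coated overnight at 4 °C in TBS with 1.0 mM Ca/Mg/Mn, pH 7.4, then BSA-blocked. Compounds (top 1.0×10^−4 M) competed with 1 nM biotinylated vitronectin for 2 h at room temperature. Bound label detected by HRP anti-biotin, A450; values normalized to no-competitor controls, four-parameter fit.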

Another test has as its system platelet rich plasma. The test is described as follows: Human platelet rich plasma assay (ADP induced platelet aggregation). As to conditions: Homo sapiens, Platelet, ADP induced platelet aggregation in human platelet rich plasma; read-out: Human PRP. In kind it is cell-based. The protocol: Human Platelet Rich Plasma Assays
Healthy aspirin free donors were selected from a pool of volunteers. The harvesting of platelet rich plasma and subsequent ADP induced platelet aggregation assays were performed as described in Zucker, M. B., “Platelet Aggregation Measured by the Photometric Method”, Methods in Enzymology 169(1989):117-133. Standard venipuncture techniques using a butterfly allowed the withdrawal of 45 mL of whole blood into a 60 mL syringe containing 5 mL of 3.8% trisodium citrate. Following thorough mixing in the syringe, the anti-coagulated whole blood was transferred to a 50 mL conical polyethylene tube. The blood was centrifuged at room temperature for 12 minutes at 200×g to sediment non-platelet cells. Platelet rich plasma was removed to a polyethylene tube and stored at room temperature until used. Platelet poor plasma was obtained from a second centrifugation of the remaining blood at 2000×g for 15 minutes. Platelet counts are typically 300,000 to 500,000 per microliter. Platelet rich plasma (0.45 mL) was aliquoted into siliconized cuvettes and stirred (1100 rpm) at 37° C. for 1 minute prior to adding 50 uL of pre-diluted test compound. After 1 minute of mixing, aggregation was initiated by the addition of 50 uL of 200 uM ADP. Aggregation was recorded for 3 minutes in a Payton dual channel aggregometer (Payton Scientific, Buffalo, N.Y.). The percent inhibition of maximal response (saline control) for a series of test compound dilutions was used to determine a dose response curve.

Turning to `O=C(O)CCNC(=O)CNC(=O)c1cccc(NC(=O)NCc2ccccc2)c1` [Example 103, 3-[[2-[[[3-[[[(phenylmethyl)amino]carbonyl]amino]phenyl]carbonyl]amino]acetyl]amino]propanoic acid], the IC50 was 16.6 nM in test [1], 19100 nM in test [2] and more than 20 µM with platelet rich plasma.

For `N=C(N)Nc1cccc(C(=O)NCC(=O)NC(CC(=O)O)c2ccc3c(c2)OCO3)c1` (racemic) [Example 6, (±)β-[[2-[[[3-[(aminoiminomethyl)amino]phenyl]carbonyl]amino]acetyl]amino]-1,3-benzodioxole-5-propanoic acid, trifluoroacetate salt], the IC50 turned out to be 1.04 nM in test [1], 15.9 nM in test [2] and 80 µM in the test on platelet rich plasma.

With `CN(CC(=O)NC(CC(=O)O)c1cccnc1)C(=O)c1cccc(NC(=N)N)c1` (racemic) [Example 80, (±)β-[[2-[[[3-[(aminoiminomethyl)amino]phenyl]carbonyl]methylamino]acetyl]amino]pyridine-3-propanoic acid, bis(trifluoroacetate)salt], the results for the IC50 (in test [1]; in test [2]; with platelet rich plasma) were 9.49 nM, 4.35 nM and 30 µM, respectively.

Turning to `N=C(N)Nc1cccc(C(=O)NCC(=O)NC(CC(=O)O)c2ccccc2O)c1` (racemic) [Example 87, (±)sodium β-[[2-[[[3-[(aminoiminomethyl)amino]phenyl]carbonyl]amino]acetyl]amino]-2-hydroxybenzenepropanoate, sodium salt, trifluoroacetate salt], the figures for the IC50 (in test [1]; in test [2]; in the test on platelet rich plasma) were 6.35 nM, 732 nM and more than 200 µM, respectively.

On to `O=C(O)CC(NC(=O)CNC(=O)c1cccc(NC2=NCCCCC2)c1)c1cc(Cl)cc(Cl)c1O` (racemic) [Example 232, (±)3,5-dichloro-2-hydroxy-β-[[2-[[[3-[(3,4,5,6-tetrahydro-2H-azepin-7-yl)amino]phenyl]carbonyl]amino]acetyl]amino]benzenepropanoic acid, trifluoroacetate salt, monohydrate], for which the IC50 in test [1] was 19.1 nM; in test [2], 12100 nM; in the test with platelet rich plasma it was more than 200 µM.

In the case of `NS(=O)(=O)c1ccc(CNC(=O)Nc2cccc(C(=O)NCC(=O)NC(CC(=O)O)c3cccnc3)c2)cc1` (stereo not drawn) [Example 126, β-[[2-[[[3-[[[[(4-(aminosulfonyl)phenylmethyl]amino]carbonyl]amino]phenyl]carbonyl]amino]acetyl]amino]pyridine-3-propanoic acid, trifluoroacetate salt], the IC50 in test [1] is 2.48 nM; in test [2], 2010 nM; in the test with platelet rich plasma, more than 200 µM.

As to `N=C(N)Nc1cc(C(=O)NCC(=O)NC(CC(=O)O)c2cc(Cl)cc(Cl)c2)cc(C(F)(F)F)c1` (racemic) [Example 177, (±)β-[[2-[[[3-[(aminoiminomethyl)amino]-5-(trifluoromethyl)phenyl]carbonyl]amino]acetyl]amino]-3,5-dichlorobenzenepropanoic acid, trifluoroacetate salt], the IC50 in test [1] is 0.58 nM; in test [2] it was 137 nM; in the test on platelet rich plasma, more than 20 µM.

`O=C(O)CC(NC(=O)CNC(=O)c1ccc(Cl)c(NC2=NCCCCC2)c1)c1cccnc1` (racemic) [Example 21, (±)β-[[2-[[[4-chloro-3-[(3,4,5,6-tetrahydro-2H-azepin-7-yl)amino]phenyl]carbonyl]amino]acetyl]amino]pyridine-3-propanoic acid, bis TFA Salt]: the values for the IC50 (in test [1]; in test [2]; in the test with platelet rich plasma) were 2.44 nM, 1910 nM and more than 200 µM, respectively.

With `N=C(N)Nc1ccc(Cl)c(C(=O)NCC(=O)NC(CC(=O)O)c2ccccc2)c1` (stereo not drawn) [Example 155, β-[[2-[[[5-[(aminoiminomethyl)amino]-2-chlorophenyl]carbonyl]amino]acetyl]amino]benzenepropanoic acid, trifluoroacete salt], the IC50 in test [1] is 5.05 nM; in test [2] it was 81.1 nM; in the test with platelet rich plasma it was more than 200 µM.

Regarding `CCOC(=O)CC(NC(=O)CNC(=O)c1cccc(NC(=N)N)c1)c1cccnc1` (racemic) [Example 1, (±)ethyl β-[[2-[[[3-[(aminoiminomethyl)amino]phenyl]carbonyl]amino]acetyl]amino]pyridine-3-propanoate, bis(trifluoroacetate)salt], the IC50 in test [1] is 76.9 nM; in test [2], 8350 nM; in the test on platelet rich plasma, more than 200 µM.

Regarding `COc1ccc(C(CC(=O)O)NC(=O)CNC(=O)c2cccc(NC(=N)N)c2)c(O)c1` (racemic) [Example 222, (±)β-[[2-[[[3-[(aminoiminomethyl)amino]phenyl]carbonyl]amino]acetyl]amino]-2-hydroxy-4-methoxybenzenepropanoic acid], the IC50 is 2.02 nM in test [1], 112 nM in test [2] and more than 200 µM with platelet rich plasma.

With `O=C(O)CC(NC(=O)CNC(=O)c1cccc(NC(=O)NCc2cccnc2)c1)c1cccnc1` (stereo not drawn) [Example 127, β-[[2-[[[3-[[[3-pyridinylmethyl)amino]carbonyl]amino]phenyl]carbonyl]amino]acetyl]amino]pyridine-3-propanoic acid, bis trifluoroacetate salt], the figures for the IC50 (in test [1]; in test [2]; with platelet rich plasma) were 0.51 nM, 461 nM and more than 200 µM, respectively.

Take `N=C(N)Nc1cccc(C(=O)NCC(=O)NC(CC(=O)O)c2cccc3ccccc23)c1` (racemic) [Example 41, (±)β-[[2-[[[3-[(aminoiminomethyl)amino]phenyl]carbonyl]amino]acetyl]amino]naphthalene-1-propanoic acid, trifluoroacetate salt]: the IC50 in test [1] was 12.1 nM; in test [2], 830 nM; in the test with platelet rich plasma it was more than 200 µM.

Take `O=C(O)CC(NC(=O)CNC(=O)c1cccc(NC(=O)Nc2ccccc2)c1)c1ccc2c(c1)OCO2` (stereo not drawn) [Example 124, β-[[2-[[[3-3-[[(phenylamino]carbonyl]amino]phenyl]carbonyl]amino]acetyl]amino]-1,3-benzodioxole-5-propanoic acid]: the IC50 in test [1] is 22 nM; in test [2], 317 nM; in the test with platelet rich plasma it was more than 20 µM.

For the molecule `C#C[C@H](CC(=O)O)NC(=O)CNC(=O)c1cccc(N/C(=N/C#N)NC)c1` [Example 141, 3S-[[2-[[[3-[[(cyanoimino)(methylamino)methyl]amino]phenyl]carbonyl]amino]acetyl]amino]-4-pentynoic acid], the IC50 in test [1] is 3.09 nM; in test [2], 125 nM; in the test with platelet rich plasma, more than 200 µM.

For the molecule `O=C(O)CC(NC(=O)CNC(=O)c1cccc(NC(=O)NCCc2ccccc2)c1)c1cccnc1` (stereo not drawn) [Example 130, β-[[2-[[[3-[[[(2-phenylethyl)amino]carbonyl]amino]phenyl]carbonyl]amino]acetyl]amino]pyridine-3-propanoic acid, trifluoroacetate salt], the figures for the IC50 (in test [1]; in test [2]; in the test on platelet rich plasma) were 47 nM, 2690 nM and more than 200 µM, respectively.

For the molecule `N=C(N)Nc1cccc(C(=O)NCC(=O)NC(CC(=O)O)c2ccco2)c1` (racemic) [Example 55, (±)β-[[2-[[[3-[(aminoiminomethyl)amino]phenyl]carbonyl]amino]acetyl]amino]furan-2-propanoic acid, trifluoroacetate salt], the IC50 is 4.77 nM in test [1], 117 nM in test [2] and more than 200 µM in the test with platelet rich plasma.
